Legend:
[1] = test system: L. monocytogenes strain S23; assay: MIC in Bioscreen after 24 h at 30° C. in laboratory medium; type: cell-based, Listeria monocytogenes; details: alone
Experimental: (§1) A 100,000 ppm GRE09 solution was prepared in water and filter sterilised (0.2 μm). Further dilutions were prepared in sterile deionised water at 1,250-20,000 ppm. Brain Heart Infusion broth (Oxoid) was prepared and GRE09 stock solutions were added to give the following test solutions of GRE09; 125, 250, 500, 750, 1000, 1250, 1500, 2000 ppm. […] A fully automated microbial growth analyser was used to determine microbial growth curves (Microbiology Reader Bioscreen C analyser linked to a PC with installed software BioLink v 5.30; Labsystem Oy, Finland). Tests were prepared in honeycomb 2 (HC 2) microtitre/cuvette plates with a capacity of 100 wells per plate. The wells were loaded with 270 μl of the prepared media and inoculated at a level of 10^3 CFU (colony forming units)/ml with 30 μl of microbial suspension. Incubation time and temperature was as appropriate for the test organism. This test allowed suitable test levels for the compounds to be determined. The rosemary extract and nisin were then tested in combination, using the same procedure. […] GRE09 solutions were prepared at 250, 500 and 1000 ppm as above. Combinations of all these test levels were prepared and tested in the Bioscreen as before.
(§2) Growth curves of Listeria monocytogenes and B. cereus strains in laboratory media were analysed as described above using the Bioscreen C analyser. […]

[2] = test system: Listeria monocytogenes and B. cereus strains; assay: In vitro synergy with nisin in Bioscreen, 24 h at 30° C.; type: cell-based, Listeria monocytogenes; Bacillus cereus; details: combined with nisin
Experimental: Growth curves of Listeria monocytogenes and B. cereus strains in laboratory media were analysed as described above using the Bioscreen C analyser. Minimal inhibitory concentrations (MIC) were determined for the test compounds used singly or in combination after 24 h at 30° C. […] These had been prepared by selected extraction with either organic solvents or CO2 to obtain extracts containing 28% phenolic diterpenes (28RE; Danisco) and a rosemary extract containing 6% rosmarinic acid (6RA; Danisco).

[3] = test system: B. cereus Campden spores; assay: MIC in Bioscreen after 24 h at 30° C. in laboratory medium; type: cell-based, Bacillus cereus; details: alone
Experimental: as §1, §2

[4] = test system: Listeria monocytogenes strains 272, CRA3930 and NCTC12426; assay: Kill of Listeria in chicken soup at 20° C. with nisin and rosemary extract components; type: cell-based; details: FIGS. 4 and 5
Experimental: The chicken soup model was used as before. The following samples were tested: GRE09, deodorised rosemary extracts containing 28% or 70% phenolic diterpenes (RE28 and RE70; Danisco), a water soluble rosemary extract containing 6% rosmarinic acid (6RA; Danisco) and pure rosmarinic acid (RA; Sigma). Additions to the soup were made as appropriate. The soup was pasteurised (70° C./2 minutes), the pH recorded and the soup was then inoculated with a cocktail of Listeria cells prepared as described before. The tests were incubated at 20° C. and viable count enumeration performed after 0, 2, 4 and 24 h at 20° C. Initial Listeria levels were 1.3×10^5 CFU/ml. The test was repeated at two nisin levels and over different time periods. The pH of the soup without addition was pH 6.06-6.20.

| Compound | MIC in Bioscreen after 24 h at 30° C., individual components [1] | effect of the substance on nisin activity (synergy) in laboratory medium [2] | MIC in Bioscreen after 24 h at 30° C., individual components [3] | synergy with nisin in achieving kill of Listeria cells [4] |
| --- | --- | --- | --- | --- |
| O=C(/C=C/c1ccc(O)c(O)c1)O[C@H](Cc1ccc(O)c(O)c1)C(=O)O [RA, rosmarinic acid] | 1% RA | Enhanced nisin activity | 1% RA | evident but not as strong |
| CC(O)CO (centres unmarked) [propylene glycol] | – | did not enhance nisin activity | – | – |
